From ChEMBL document CHEMBL5532720, “A Potent Solution for Tumor Growth and Angiogenesis Suppression via an ELR+CXCL-CXCR1/2 Pathway Inhibitor” (ACS Med Chem Lett, 2024)
Calls of active or inactive are those of the source. No cut-off for these calls is given here.

Columns and labels:
A498 [1] = assay: Antiproliferative activity against human A498 cells incubated for 48 hrs by XTT assay; assay type: functional, cell-based; settings: A498, 48 h
RCC4 = assay: Antiproliferative activity against human RCC4 cells incubated for 48 hrs by XTT assay; assay type: functional, cell-based; settings: RCC4, 48 h
786-0 = assay: Antiproliferative activity against human 786-0 cells incubated for 48 hrs by XTT assay; assay type: functional, cell-based; settings: 786-0, 48 h
[2] = Antiproliferative activity against human Cisplatin and radiotherapy resistant CAL27RR cells incubated for 48 hrs by XTT assay; assay type: functional, cell-based
CAL-27 = assay: Antiproliferative activity against human CAL-27 cells incubated for 48 hrs by XTT assay; assay type: functional, cell-based; settings: CAL-27, 48 h
[3] = Antiproliferative activity against human Sunitinib-resistant 786-R cells incubated for 48 hrs by XTT assay; assay type: functional, cell-based
CAL-33 = assay: Antiproliferative activity against human CAL-33 cells incubated for 48 hrs by XTT assay; assay type: functional, cell-based; settings: CAL-33, 48 h
[4] = Antiproliferative activity against human Cisplatin and radiotherapy resistant CAL33RR cells incubated for 48 hrs by XTT assay; assay type: functional, cell-based
A498 [5] = assay: Inhibition of CXCL8-induced cell migration in human A498 cells at 0.5 uM incubated for 24 hrs by crystal violet staining based analysis relative to control; assay type: functional
A498 [6] = assay: Inhibition of cell invasion in human A498 cells cultured as 3D spheroids at 5 uM measured after 7 days by light microscopic imaging analysis relative to control; assay type: functional; settings: A498, 168 h, time 7 day
A498 [7] = assay: Inhibition of cell invasion in human A498 cells cultured as 3D spheroids at 5 uM measured after 7 days by light microscopic imaging analysis; assay type: functional, cell-based; settings: time 7.0 day

IC50 (786-0) [µM] | SMILES | IC50 (A498 [1]) [µM] | IC50 (RCC4) [µM] | IC50 [2] [µM] | IC50 (CAL-27) [µM] | IC50 [3] [µM] | IC50 (CAL-33) [µM] | IC50 [4] [µM] | inhibition at 0.5 µM (A498 [5]) [%] | inhibition at 5 µM (A498 [6]) [%] | inhibition (A498 [7])
> 25 | CCOc1ccc2nc(NC(=O)Nc3cccc(Cl)c3)sc2c1 | > 25 | > 25 | 20 | > 25 | > 25 | 4 | > 25 | – | – | –
25 | O=C(Nc1ccccc1)Nc1nc2cc([N+](=O)[O-])ccc2[nH]1 | 25 | > 25 | 15 | > 25 | > 25 | 20 | > 25 | – | – | –
25 | COc1ccc(NC(=O)Nc2nc3ccc([N+](=O)[O-])cc3s2)cc1 | 20 | 20 | > 25 | > 25 | 25 | > 25 | > 25 | – | – | –
4 | Cc1nn(C)cc1-c1ccc2nc(NC(=O)Nc3cccc(Cl)c3)sc2c1 | 5 | 8 | 6 | 7 | 8 | 6 | 7 | – | – | Active
> 25 | O=C(Nc1cccc(Cl)c1)Nc1nc2ccc(Br)cc2s1 | > 25 | > 25 | > 25 | > 25 | > 25 | > 25 | > 25 | – | – | –
> 25 | O=C(Nc1ccccc1)Nc1nc2cc([N+](=O)[O-])ccc2o1 | > 25 | > 25 | > 25 | > 25 | > 25 | > 25 | > 25 | – | – | –
2.5 | Cc1noc(C)c1-c1ccc2nc(NC(=O)Nc3cccc(Cl)c3)sc2c1 | 3 | 5 | 2.5 | 1 | 4 | 3.5 | 3.5 | – | – | Active
> 10 | Cc1ccc(-c2ccc3nc(NC(=O)Nc4cccc(Cl)c4)sc3c2)s1 | – | > 10 | > 10 | > 10 | > 10 | > 10 | > 10 | – | – | –
> 25 | CS(=O)(=O)Nc1ccc2nc(NC(=O)Nc3cccc(Cl)c3)sc2c1 | > 25 | > 25 | > 25 | > 25 | > 25 | > 25 | > 25 | – | – | –
15 | O=C(Nc1nc2ccc([N+](=O)[O-])cc2s1)Nc1ccccc1Br | 20 | 25 | 25 | > 25 | 14 | 8 | > 25 | – | – | –
4 | O=C(Nc1cccc(Cl)c1)Nc1nc2cc([N+](=O)[O-])ccc2[nH]1 | 8 | 3 | 10 | 25 | 4 | 15 | 25 | – | – | –
> 25 | CCOc1ccc2nc(NC(=O)Nc3cc(Cl)cc(Cl)c3)sc2c1 | > 25 | > 25 | 20 | > 25 | > 25 | 15 | > 25 | – | – | –
> 25 | CC(=O)Nc1ccc2nc(NC(=O)Nc3cccc(Cl)c3)sc2c1 | 25 | > 25 | 7 | > 25 | 25 | 20 | > 25 | – | – | –
5 | Cc1ccc(NC(=O)Nc2nc3ccc([N+](=O)[O-])cc3s2)cc1 | 15 | 10 | 4 | 7 | 5 | 7 | 7 | – | – | –

More lines, now with the values behind:

SMILES | IC50 (786-0) [µM] | IC50 (A498 [1]) [µM] | IC50 (RCC4) [µM] | IC50 [2] [µM] | IC50 (CAL-27) [µM] | IC50 [3] [µM] | IC50 (CAL-33) [µM] | IC50 [4] [µM] | inhibition at 0.5 µM (A498 [5]) [%] | inhibition at 5 µM (A498 [6]) [%] | inhibition (A498 [7])
O=C(Nc1ccccc1)Nc1nc2ccc([N+](=O)[O-])cc2s1 | 5 | 3 | 5 | 4 | 25 | 5 | 6 | 25 | – | – | –
O=C(Nc1cccc(Cl)c1)Nc1nc2ccc(-c3ccsc3)cc2s1 | > 25 | > 25 | > 25 | > 25 | > 25 | > 25 | > 25 | > 25 | – | – | –
Nc1ccc2nc(NC(=O)Nc3cccc(Cl)c3)sc2c1 | 20 | 20 | 20 | 20 | > 25 | > 25 | > 25 | > 25 | – | – | –
O=C(Nc1cccc(Cl)c1)Nc1nc2ccc([N+](=O)[O-])cc2o1 | 20 | 22 | 25 | > 25 | > 25 | > 25 | > 25 | 12 | – | – | –
Cc1ccccc1NC(=O)Nc1nc2ccc([N+](=O)[O-])cc2s1 | 8 | 6 | 10 | 4 | 4 | 6 | 4 | 4 | – | – | –
O=C(Nc1cccc(Cl)c1)Nc1nc2ccc([N+](=O)[O-])cc2s1 | – | – | 5 | 2 | 3 | 2.5 | 2 | 3 | > 50 | > 75 | –
O=C(Nc1cccc(Cl)c1)Nc1nc2ccc(-c3cccs3)cc2s1 | > 25 | > 25 | > 25 | > 25 | > 25 | > 25 | > 25 | > 25 | – | – | –
O=C(Nc1ccc(Cl)cc1)Nc1nc2ccc([N+](=O)[O-])cc2s1 | 2 | 3 | 3 | 4 | 5 | 5 | 2.5 | 2 | > 50 | > 75 | –
O=C(Nc1cccc(Cl)c1)Nc1nc2cc([N+](=O)[O-])ccc2o1 | 25 | 25 | 25 | > 25 | > 25 | > 25 | > 25 | > 25 | – | – | –
O=C(Nc1cccc(Cl)c1)Nc1nc2ccc(-c3ccco3)cc2s1 | > 25 | > 25 | > 25 | > 25 | > 25 | > 25 | > 25 | > 25 | – | – | –
O=C(Nc1ccc(Br)cc1)Nc1nc2ccc([N+](=O)[O-])cc2s1 | 5 | 2.5 | 7 | 2.5 | 5 | 5 | 2 | 5 | > 50 | > 75 | –
O=C(Nc1cccc(Cl)c1)Nc1nc2ccc(-c3ccccn3)cc2s1 | 15 | 12 | 25 | > 25 | > 25 | 8 | > 25 | > 25 | – | – | –
Cn1cc(-c2ccc3nc(NC(=O)Nc4cccc(Cl)c4)sc3c2)cn1 | > 10 | > 10 | > 10 | > 10 | 7 | > 10 | > 10 | > 10 | – | – | –
O=C(Nc1cccc(Cl)c1)Nc1nc2ccc(-c3ccoc3)cc2s1 | > 10 | > 10 | > 10 | > 10 | > 10 | > 10 | > 10 | > 10 | – | – | –
Cc1ccc(NC(=O)Nc2nc3ccc([N+](=O)[O-])cc3o2)cc1 | 4 | 9 | 2 | 20 | 25 | 25 | 15 | 20 | – | – | –
O=C(Nc1cccc(Cl)c1)Nc1nc2ccc(-c3cccc4ccccc34)cc2s1 | 7 | 5 | 8 | > 25 | > 25 | 10 | 12 | > 25 | – | – | inactive
O=C(Nc1nc2ccc([N+](=O)[O-])cc2s1)Nc1ccccc1Cl | 7 | 6 | 9 | 7 | 8 | 10 | 8 | 7 | – | – | –
